In patent US12692230B2, “(1 h-indol-5-yl)acrylamide derivatives as inhibitors of TEAD proteins and the hippo-YAP1/TAZ signaling cascade for the treatment of cancer” (Sanofi, priority 2020, dated 2026):

Test system: TEAD responsive promoter element (8XGTIIC-Luciferase; YAP1-TEAD and TAZ-TEAD activity)
Test: TEAD-Luciferase reporter assay
Assay type: cell-based
Conditions: Homo sapiens; luciferase activity in tumor cell lines with stable integration of the 8XGTIIC-Luciferase construct; 10 doses between 1 and 10000 nM, 48 hrs
From the text: TEAD-Luciferase Reporter Assay
Luciferase-based gene reporter assays were used, employing the TEAD responsive promoter element that are stably integrated to different human tumor cell lines in order to monitor YAP1-TEAD and TAZ-TEAD activity and to study YAP1/TAZ-TEAD activity modulation by small molecule compounds. Luciferase-based gene reporter assays employing the GAPDH promoter element and stably integrated to different human tumor cell lines are used as counter screen control cell lines.
Tumor cell lines with stable integration of the 8XGTIIC-Luciferase construct (Dupont et al., Nature 2011) or the GAPDH-Luciferase control plasmid, are seeded in culture medium in 96-well plates at a density of 8000 cells/well. Following an overnight incubation in a 37° C., 5% CO2 growth chamber, cells are treated with compounds described above at 10 doses ranging between 1 and 10000 nM for 48 hrs. After compound incubation, cells are lysed with Bright-Glo Luciferase Assay System (Promega E2620) and luciferase activity is measured using a luminescent plate reader.
The inhibitory activity of the compounds with respect to luciferase activity is given by the concentration which inhibits 50% of activity of non-treated cells. IC50s are determined with a nonlinear regression model on XLfit software analysis (IDBS, UK).

Compound | IC50 [nM]
C=CC(=O)Nc1cccc2ccn(Cc3cccc(C(F)(F)F)c3)c12 [Example 58, N-(1-(3-(trifluoromethyl)benzyl)-1H-indol-7-yl)acrylamide] | 2010
C=CC(=O)Nc1ccc2c(ccn2Cc2ccccc2)c1 [Example 18, N-(1-Benzyl-1H-indol-5-yl)-acrylamide] | 963
C=CC(=O)Nc1ccc2ccn(-c3cccc(C(F)(F)F)c3)c2c1 [Example 62, N-(1-(3-(trifluoromethyl)phenyl)-1H-indol-6-yl)acrylamide] | 64
C=CC(=O)Nc1ccc2c(ccn2CC2CCC(F)(F)C2)c1 (stereo not drawn) [Example 29, N-(1-((3,3-difluorocyclopentyl)methyl)-1H-indol-5-yl)acrylamide] | 43
C=CC(=O)Nc1ccc2c(ccn2Cc2cccc(I)c2)c1 [Example 9, N-(1-(3-iodobenzyl)-1H-indol-5-yl)acrylamide] | 143
C=CC(=O)Nc1ccc2c(ccn2Cc2cc(C(F)(F)F)ccc2F)c1 [Example 10, N-(1-(2-fluoro-5-(trifluoromethyl)benzyl)-1H-indol-5-yl)acrylamide] | 7220
C=CC(=O)Nc1ccc2c(ccn2Cc2ccc(S(F)(F)(F)(F)F)cc2)c1 [Example 6, N-(1-(4-(pentafluoro-λ6-sulfanyl)benzyl)-1H-indol-5-yl)acrylamide] | 4040
C/C=C/C(=O)Nc1ccc2c(ccn2-c2ccc(C(F)(F)F)cc2)c1 [Example 75, (E)-N-(1-(4-(trifluoromethyl)phenyl)-1H-indol-5-yl)but-2-enamide] | 458
C=CC(=O)Nc1cc(Cl)c2c(ccn2Cc2cccc(C(F)(F)F)c2)c1 [Example 79, N-(7-chloro-1-(3-(trifluoromethyl)benzyl)-1H-indol-5-yl)acrylamide] | 85
C=CC(=O)Nc1ccc2c(ccn2Cc2ccc(-c3ccccc3)cc2)c1 [Example 30, N-(1-([1,1′-biphenyl]-4-ylmethyl)-1H-indol-5-yl)acrylamide] | ≥ 10000
CN(C)C/C=C/C(=O)Nc1ccc2c(ccn2-c2ccc(C(F)(F)F)cc2)c1 [Example 76, (E)-4-(dimethylamino)-N-(1-(4-(trifluoromethyl)phenyl)-1H-indol-5-yl)but-2-enamide] | 3830
C=CC(=O)Nc1ccc2c(ccn2Cc2ccc(OC(F)(F)F)cc2)c1 [Example 7, N-(1-(4-(trifluoromethoxy)benzyl)-1H-indol-5-yl)acrylamide] | ≥ 10000
C=CC(=O)Nc1ccc2c(ccn2CC2CC(C(F)(F)F)C2)c1 (stereo not drawn) [Example 28, N-(1-((3-(trifluoromethyl)cyclobutyl)methyl)-1H-indol-5-yl)acrylamide] | ≥ 10000
C=CC(=O)Nc1ccc2c(ccn2-c2cncc(F)c2)c1 [Example 67, N-(1-(5-fluoropyridin-3-yl)-1H-indol-5-yl)acrylamide] | 8540
C=CC(=O)Nc1ccc2c(ccn2Cc2ccc(C(F)(F)F)o2)c1 [Example 55, N-(1-((5-(trifluoromethyl)furan-2-yl)methyl)-1H-indol-5-yl)acrylamide] | 185
C=CC(=O)Nc1ccc2c(ccn2C(C)c2cccc(C(F)(F)F)c2)c1 (stereo not drawn) [Example 4, N-(1-(1-(3-(trifluoromethyl)phenyl)ethyl)-1H-indol-5-yl)acrylamide] | 558
C=CC(=O)Nc1ccc2c(c1)c(C(N)=O)cn2Cc1cccc(C(F)(F)F)c1 [Example 83, 5-Acrylamido-1-(3-(trifluoromethyl)benzyl)-1H-indole-3-carboxamide] | 1790
C=CC(=O)Nc1ccc2c(ccn2C2CCN(c3ccc(C(F)(F)F)cc3)CC2)c1 [Example 40, N-(1-(1-(4-(trifluoromethyl)phenyl)piperidin-4-yl)-1H-indol-5-yl)acrylamide] | ≥ 10000
C=CC(=O)Nc1ccc2c(ccn2CCCN2CCC(F)(F)C2)c1 [Example 41, N-(1-(3-(3,3-difluoropyrrolidin-1-yl)propyl)-1H-indol-5-yl)acrylamide] | ≥ 10000
C=CC(=O)Nc1ccc2c(ccn2CC2CCCCC2)c1 [Example 27, N-(1-(cyclohexylmethyl)-1H-indol-5-yl)acrylamide] | ≥ 10000
C=CC(=O)N(C)c1ccc2c(ccn2-c2ccc(C(F)(F)F)cc2)c1 [Example 74, N-methyl-N-(1-(4-(trifluoromethyl)phenyl)-1H-indol-5-yl)acrylamide] | 106
C=CC(=O)Nc1ccc2c(ccn2Cc2ccc(-c3ccc(C(F)(F)F)cc3)cc2)c1 [Example 32, N-(1-((4′-(trifluoromethyl)-[1,1′-biphenyl]-4-yl)methyl)-1H-indol-5-yl)acrylamide] | 7840
C=CC(=O)Nc1cc2ccn(-c3ccc(C(F)(F)F)cc3)c2cc1Cl [Example 77, N-(6-chloro-1-(4-(trifluoromethyl)phenyl)-1H-indol-5-yl)acrylamide] | 534

Compound | IC50 [nM]
C=CC(=O)Nc1ccc2c(ccn2Cc2ccc(F)c(F)c2)c1 [Example 53, N-(1-(3,4-difluorobenzyl)-1H-indol-5-yl)acrylamide] | 33
C=CC(=O)Nc1ccc2c(ccn2Cc2cccc(S(F)(F)(F)(F)F)c2)c1 [Example 5, N-(1-(3-(pentafluoro-λ6-sulfanyl)benzyl)-1H-indol-5-yl)acrylamide] | 61
C=CC(=O)Nc1ccc2c(ccn2C2CCC(F)(F)CC2)c1 [Example 39, N-(1-(4,4-difluorocyclohexyl)-1H-indol-5-yl)acrylamide] | 84
C=CC(=O)N(C)c1ccc2c(c1)cc(C)n2-c1ccc(C(F)(F)F)cc1 [Example 71, N-methyl-N-[2-methyl-1-[4-(trifluoromethyl)phenyl]indol-5-yl]acrylamide] | 24
C=CC(=O)Nc1ccc2ccn(Cc3cccc(C(F)(F)F)c3)c2c1 [Example 21, N-(1-(3-(trifluoromethyl)benzyl)-1H-indol-6-yl)acrylamide] | 35
C=CC(=O)Nc1cc(Cl)c2c(ccn2-c2ccc(C(F)(F)F)cc2)c1 [Example 81, N-(7-chloro-1-(4-(trifluoromethyl)phenyl)-1H-indol-5-yl)acrylamide] | 68
C=CC(=O)Nc1ccc2c(ccn2Cc2csc(C(F)(F)F)n2)c1 [Example 57, N-(1-((2-(trifluoromethyl)thiazol-4-yl)methyl)-1H-indol-5-yl)acrylamide] | 191
C=CC(=O)Nc1ccc2c(ccn2-c2cccc(C(F)(F)F)c2)c1 [Example 43, N-(1-(3-(trifluoromethyl)phenyl)-1H-indol-5-yl)acrylamide] | 36
C=CC(=O)Nc1ccc2c(ccn2Cc2cscn2)c1 [Example 56, N-(1-(thiazol-4-ylmethyl)-1H-indol-5-yl)acrylamide] | ≥ 10000
C=CC(=O)Nc1cccc2c1ccn2Cc1cccc(C(F)(F)F)c1 [Example 19, N-(1-(3-(trifluoromethyl)benzyl)-1H-indol-4-yl)acrylamide] | 195
C=CC(=O)Nc1ccc2c(c1)c(C(=O)OC)cn2Cc1cccc(C(F)(F)F)c1 [Example 61, methyl 5-acrylamido-1-(3-(trifluoromethyl)benzyl)-1H-indole-3-carboxylate] | 41
C=CC(=O)Nc1ccc2c(ccn2-c2cccc(S(C)(=O)=O)c2)c1 [Example 50, N-(1-(3-(methylsulfonyl)phenyl)-1H-indol-5-yl)acrylamide] | 4680
C=CC(=O)Nc1ccc2c(c1)c(C)c(C)n2Cc1cccc(C(F)(F)F)c1 [Example 16, N-(2,3-dimethyl-1-(3-(trifluoromethyl)benzyl)-1H-indol-5-yl)acrylamide] | 31
C=CC(=O)Nc1ccc2c(ccn2-c2ccc(C#N)cc2)c1 [Example 51, N-(1-(4-cyanophenyl)-1H-indol-5-yl)acrylamide] | 313
C=CC(=O)Nc1ccc2c(ccn2CCN(C)CC(F)(F)F)c1 [Example 36, N-(1-(2-(methyl(2,2,2-trifluoroethyl)amino)ethyl)-1H-indol-5-yl)acrylamide] | 4560
C=CC(=O)Nc1ccc2c(ccn2C2CCN(CC(F)(F)F)CC2)c1 [Example 38, N-(1-(1-(2,2,2-trifluoroethyl)piperidin-4-yl)-1H-indol-5-yl)acrylamide] | 1500
C=CC(=O)Nc1ccc2c(c1)c(C)cn2Cc1cccc(C(F)(F)F)c1 [Example 11, N-(3-methyl-1-(3-(trifluoromethyl)benzyl)-1H-indol-5-yl)acrylamide] | 30
C=CC(=O)Nc1ccc2c(c1)cc(C)n2Cc1cccc(C(F)(F)F)c1 [Example 13, N-(2-methyl-1-(3-(trifluoromethyl)benzyl)-1H-indol-5-yl)acrylamide] | 63
C=CC(=O)Nc1ccc2c(ccn2Cc2cccc(S(C)(=O)=O)c2)c1 [Example 59, N-(1-(3-(methylsulfonyl)benzyl)-1H-indol-5-yl)acrylamide] | 2870
C=CC(=O)Nc1ccc2c(ccn2CC2CCC(C(F)(F)F)CC2)c1 (stereo not drawn) [Example 24, N-(1-((4-(trifluoromethyl)cyclohexyl)methyl)-1H-indol-5-yl)acrylamide] | 1000
C=CC(=O)Nc1ccc2ccn(-c3ccc(C(F)(F)F)cc3)c2c1 [Example 64, N-(1-(4-(trifluoromethyl)phenyl)-1H-indol-6-yl)acrylamide] | 108
CN(C)C/C=C/C(=O)Nc1cccc2c1ccn2Cc1cccc(C(F)(F)F)c1 [Example 20, (E)-4-(dimethylamino)-N-(1-(3-(trifluoromethyl)benzyl)-1H-indol-4-yl)but-2-enamide] | 7760
